As usually defined, the IC50 is the concentration that gives 50% inhibition.

Counter-ions that a name gives are not always drawn. Like-named read-outs stand apart in the source and are kept apart here.

The test system of data set [1] is H7299. The data set is described as follows: In vitro antiproliferation assay, H7299. The format is cell-based.
Data set [2] relates to ASPC-1 (pancreatic adenocarcinoma). The experiment in a line: In vitro antiproliferation assay, ASPC-1. The format is cell-based. The note with it: ASPC1.
For data set [3], the system named is THP-1 (monocyte acute monocytic leukemia). The data set is described as follows: In vitro antiproliferation assay, THP-1. The format is cell-based.
Data set [4] relates to PC3 (prostate adenocarcinoma). The experiment in a line: In vitro antiproliferation assay, PC3. The format is cell-based.
In data set [5] the test system is DU145 (prostate carcinoma). The data set is described as follows: In vitro antiproliferation assay, DU145. The format is cell-based.
Data set [6] concerns K562 (bone marrow chronic myelogenous leukemia). The experiment in a line: In vitro antiproliferation assay, K562. The format is cell-based.
Data set [7] has as its system SW620 (colorectal adenocarcinoma). The experiment in a line: In vitro antiproliferation assay, SW620. The format is cell-based.
The test system of data set [8] is L1210 (mouse lymphocytic leukemia). The data set is described as follows: In vitro antiproliferation assay, L1210. The format is cell-based.
Data set [9] relates to U2OS (bone osteosarcoma). The experiment in a line: In vitro antiproliferation assay, U2OS. The format is cell-based. The following applies: U20S.
The subject of data set [10] is A549 (lung carcinoma). The experiment in a line: In vitro antiproliferation assay, A549. The format is cell-based.
In data set [11] the test system is H1299 (non-small cell lung carcinoma). The data set is described as follows: In vitro antiproliferation assay, H1299. The format is cell-based.
Data set [12] relates to SK-OV-3 (ovarian adenocarcinoma). The experiment in a line: In vitro antiproliferation assay, SK-OV-3. The format is cell-based. The note with it: Homo sapiens, SKOV3.
The test system of data set [13] is variety of different tumor cell lines. The data set is described as follows: In vitro antiproliferation assays, summary over the tumor cell lines tested. The format is cell-based. The following applies: for IC50's against tumor cell lines, tested as isolated stereoisomers: general range over the cell lines. The source says: The cis racemate of structural formula (IIa) can be referred to as the 2-exo-3-exo racemate, and includes the (1R,2R,3S,4S) and (1S,2S,3R,4R) diastereomers of structural formulae (Ia) and (Ib), respectively. The cis racemate of structural formula (IIb) can be referred to as the 2-endo-3-endo racemate, and includes the (1R,2S,3R,4S) and (1S,2R,3S,4R) diastereomers of structural formulae (Ic) and (Id), respectively. […] Moreover, it has been discovered that the (1R,2R,3S,4S) diastereomer of racemate r1 is largely responsible for the potency of the racemate r1.

In data set [14] the test system is SU86.86 (pancreatic carcinoma). The data set is described as follows: In vitro antiproliferation assay, SU86.86. The format is cell-based. The following applies: Homo sapiens, SU.86.86.
Data set [15] in a line: Pharmacokinetics in monkeys, plasma concentration over time. The format is in vivo. The procedure:
Compound 60a was administered to monkeys intravenously (1 mg/kg in saline) and orally (5 mg/kg in saline) and the plasma concentrations monitored over time.

The test system of data set [16] is Colo205 tumors. The procedure: (§1) Compound 60a.2HCl, was tested for its ability to shrink A549 and Colo205 tumors in a standard xenograft therapeutic model in SCID mice, and Colo205 and MiaPaCa tumors in a standard xenograph regression model in SCID mice. When palpable tumors appeared and were of a preselected volume (approx. 100 mm3 for treatment model; >300 mm3 for regression model), the mice were administered test compounds in the amounts and according to the dosing regimens specified in TABLE 3 (treatment protocol) and TABLE 4 (regression protocol), below.

The test system of data set [17] is A549 tumors. The note with it: A549, treatment model, 5 days on/2 days off, 10 mg/kg qd, p>0.05. The procedure: as §1
The test system of data set [18] is MiaPaCa tumors. The note with it: regression model, 10 mg/kg/day daily (3 cycles), oral or i.p. How it is done:
as §1

Data set [19] has as its system H460 (large cell lung carcinoma). The following applies: read-out: In Vitro IC50. How it is done:
Compounds 60r1, 60r2, 60r1.2HCl, 60a, 60b and 60a.HCl were tested against a variety of different types of tumor cells for their ability to inhibit proliferation using standard in vitro antiproliferation assays.

Data set [20] deals with T1, Aurora kinase-B (Homo sapiens, UniProt Q96GD4).
T1 construct: endogenous in cells; host or cells: A549 cells
The experiment in a line: Functional cellular assay of Aurora kinase-B, phosphorylation of histone H3 in A549 cells. The format is cell-based. How it is done:
Compounds 60a and 60b were tested for their ability to inhibit Aurora kinase-B in a functional cellular assay involving phosphorylation of its substrate, histone H3. For the assay, A549 cells were seeded into the wells of a microtiter tray (5000 cells/well in 100 μl F12K media) late in the afternoon on Day 1. The cells were grown overnight (37° C., 5% CO2). On Day 2, 50 μl nocodazole (1 μM in media) was added to each well, giving a final concentration of 333 nM. Cells were grown for an additional 18 hrs under the same conditions.
On Day 3, 50 μl aliguots of varying concentrations of test compound were added to the wells. […] The cells were then stained with a secondary antibody labeled with a fluorescent dye (secondary antibody donkey anti-mouse AlexFluor 488 (Invitrogen Molecular Probes; 1:2000) and DAPI (1:15,000 of 1 mg/ml stock) for 1 hr at room temperature, washed three times with DPBS (200 μl/well) and stored under DPBS (100 μl/well) at 4° C. until ready for analysis.
A Zeiss Axiovert S100 inverted fluorescent microscope with a Plan-NEOFLUAR 10× objective, a Hamamatsu Lightningcure 200 Mercury-Xenon light source and an Omega Optical XF57 quad filter was used for all data collection. […] Images were captured and analyzed in 12-bit format using segmentation and morphological routines contained in the Image Pro software package. […]

T1 sequence (Q96GD4 whole entry): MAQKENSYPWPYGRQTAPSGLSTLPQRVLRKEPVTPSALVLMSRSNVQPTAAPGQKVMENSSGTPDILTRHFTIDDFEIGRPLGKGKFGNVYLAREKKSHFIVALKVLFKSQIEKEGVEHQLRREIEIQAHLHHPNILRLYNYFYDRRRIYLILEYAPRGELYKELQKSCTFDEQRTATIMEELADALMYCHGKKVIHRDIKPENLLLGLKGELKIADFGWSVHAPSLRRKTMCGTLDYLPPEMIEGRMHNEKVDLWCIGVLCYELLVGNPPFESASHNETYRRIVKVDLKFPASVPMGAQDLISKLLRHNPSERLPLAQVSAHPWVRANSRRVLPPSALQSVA

`Cc1cc(Nc2ncc(F)c(NC3C4C=CC(C4)C3C(N)=O)n2)ccc1N1CCN(C)CC1` (racemic) [Compound 60r1, 2-exo-3-exo racemic N4-(3-aminocarbonylbicyclo[2.2.1]hept-5-ene-2-yl)-5-fluoro-N2-[3-methyl-4-(4-methylpiperazin-1-yl)phenyl]-2,4-pyrimidinediamine]: the IC50 in [1] was 10 to 20 nM; in data set [2], 10 to 20 nM; in data set [3] it was 20 to 1000 nM; in data set [4], 10 to 20 nM; in data set [5], 10 to 20 nM; in data set [6], 20 to 1000 nM. For the same compound, the IC50 in [7] lay within 20 to 1000 nM; in data set [8], 20 to 1000 nM; in data set [9], 10 to 20 nM; in data set [10] it was 10 to 20 nM.
Turning to `Cc1cc(Nc2ncc(F)c(NC3C4C=CC(C4)C3C(N)=O)n2)ccc1N1CCN(C)CC1` (racemic) [Compound 60r1.2HCl, 2-exo-3-exo racemic N4-(3-aminocarbonylbicyclo[2.2.1.]hept-5-ene-2-yl)-5-fluoro-N2-[3-methyl-4-(4-methylpiperazin-1-yl)phenyl]-2,4-pyrimidinediamine bis hydrogen chloride salt], the IC50 in [1] (listed as 60r1-2HCl), in data set [11] and in [10] (listed as 60r1-2HCl) was 20 to 1000 nM throughout.
As to `Cc1cc(Nc2ncc(F)c(N[C@H]3[C@@H](C(N)=O)[C@@H]4C=C[C@H]3C4)n2)ccc1N1CCN(C)CC1` [Compound 60a, (1R,2R,3S,4S)—N-4-(3-aminocarbonylbicyclo[2.2.1]hept-5-ene-2-yl)-5-fluoro-N2-[3-methyl-4-(4-methylpiperazin-1-yl)phenyl]-2,4-pyrimidinediamine], the IC50 fell in the range of 10 to 20 nM in data set [1]; 10 to 20 nM in data set [12]; 20 to 1000 nM in data set [3] (Homo sapiens); 10 to 20 nM in data set [5] (Homo sapiens, DU-145); 20 to 1000 nM in data set [6] (Homo sapiens); 10 to 20 nM in [14]. In addition, the IC50 in data set [7] (Homo sapiens, SW-620) is 10 to 20 nM; in [8] (Mus musculus), 10 to 20 nM. Besides, the “IC50's against tumor cell lines, tested as isolated stereoisomers” value in data set [13] is “nanomolar range”. The “potency relative to the (1S,2S,3R,4R) enantiomer” value in data set [13] (in general, same cell lines) is given as about 1000 fold. Further, the “time plasma concentration remained above the IC50 of 7 nM” value in data set [15] (intravenously, 1 mg/kg in saline) turned out to be 11 h. Moreover, the “time plasma concentration was maintained above the IC50” value in data set [15] (orally, 5 mg/kg in saline) was “over 20 hrs”.
Turning to `Cc1cc(Nc2ncc(F)c(N[C@H]3[C@@H](C(N)=O)[C@@H]4C=C[C@H]3C4)n2)ccc1N1CCN(C)CC1.Cl.Cl` [Compound 60a.2HCl, (1R,2R,3S,4S)—N-4-(3-aminocarbonylbicyclo[2.2.1]hept-5-ene-2-yl)-5-fluoro-N2-[3-methyl-4-(4-methylpiperazin-1-yl)phenyl]-2,4-pyrimidinediamine bis hydrogen chloride salt], the IC50 in data set [1] was 20 to 1000 nM; in data set [11] it was 20 to 1000 nM; in [5], 20 to 1000 nM; in [19] it was under 10 nM; in data set [10], under 10 nM. For the same compound, the tumor growth rate result in data set [16] (Colo205, regression model, 10 mg/kg/day oral daily (13 days)) is recorded as “Significant reductions in tumor growth rate”; in [18], “Significant reductions in tumor growth rate”. In addition, in data set [16] (Colo205, treatment model, daily and pulsed dosing regimens, all dosage levels tested (2 and 10 mg/kg/day oral)), the “tumor growth rate compared to vehicle control” value is “significant (p<0.050) reductions in tumor growth rate”. In addition, in data set [17], the “reduction in mean tumor volume” value was about 40%.
`Cc1cc(Nc2ncc(F)c(N[C@@H]3[C@H](C(N)=O)[C@H]4C=C[C@@H]3C4)n2)ccc1N1CCN(C)CC1` [Compound 60b, (1S,2S,3R,4R)—N-4-(3-Aminocarbonylbicyclo[2.2.1]hept-5-en-2-yl)-5-fluoro-N2-[3-methyl-(4-methylpiperazin-1-yl)phenyl]-2,4-pyrimidinediamine]: the “IC50 of 60b relative to its enantiomer 60a” value in [20] is “approx. 350 times greater”. In addition, the IC50 in data set [3], in data set [5] and in data set [9] was 20 to 1000 nM in each case. Also, in [13], the “IC50's against tumor cell lines, tested as isolated stereoisomers” value is recorded as “micromolar range”.

For the origin of these results see patent US8044054B2, “Stereoisomerically enriched 3-aminocarbonyl bicycloheptene pyrimidinediamine compounds and their uses” (Rigel Pharmaceuticals, Inc., priority 2004, dated 2011).
